Source: PubChem BioAssay (NCI)
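A five-concentration, 48-hour dose response in 96-well plates underlies each endpoint, interpolated linearly between surrounding concentrations. TGI: total growth inhibition.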

Experiments:
Assay in all cases: NCI tumour cell line growth inhibition, 48 h
MALME-3M melanoma = tested on: MALME-3M melanoma
PC-3 prostate = tested on: PC-3 prostate
HCT-116 colon = tested on: HCT-116 colon
NCI-H522 lung = tested on: NCI-H522 lung
A498 renal = tested on: A498 renal
DU-145 prostate = tested on: DU-145 prostate
OVCAR-5 ovarian = tested on: OVCAR-5 ovarian
NCI/ADR-RES ovarian = tested on: NCI/ADR-RES ovarian
786-0 renal = tested on: 786-0 renal
A549 NSCLC = tested on: A549 NSCLC
SR leukemia = tested on: SR leukemia
IGROV1 ovarian = tested on: IGROV1 ovarian
SK-MEL-2 melanoma = tested on: SK-MEL-2 melanoma
SNB-75 CNS = tested on: SNB-75 CNS
ACHN renal = tested on: ACHN renal
M14 melanoma = tested on: M14 melanoma
KM12 colon = tested on: KM12 colon
UACC-257 melanoma = tested on: UACC-257 melanoma
BT-549 breast = tested on: BT-549 breast
MDA-MB-435 = tested on: MDA-MB-435
SK-MEL-28 melanoma = tested on: SK-MEL-28 melanoma
OVCAR-4 ovarian = tested on: OVCAR-4 ovarian
SF-268 CNS = tested on: SF-268 CNS
T-47D breast = tested on: T-47D breast
OVCAR-8 ovarian = tested on: OVCAR-8 ovarian
MDA-MB-231 breast = tested on: MDA-MB-231 breast
HOP-92 NSCLC = tested on: HOP-92 NSCLC
SW-620 colon = tested on: SW-620 colon
NCI-H226 lung = tested on: NCI-H226 lung
HCC-2998 colon = tested on: HCC-2998 colon
UACC-62 melanoma = tested on: UACC-62 melanoma
LOX IMVI melanoma = tested on: LOX IMVI melanoma
HT29 colon = tested on: HT29 colon
U251 CNS = tested on: U251 CNS
EKVX NSCLC = tested on: EKVX NSCLC
TK-10 renal = tested on: TK-10 renal
SNB-19 CNS = tested on: SNB-19 CNS
NCI-H460 lung = tested on: NCI-H460 lung
MOLT-4 leukemia = tested on: MOLT-4 leukemia
MDA-N = tested on: MDA-N
RXF 393 renal = tested on: RXF 393 renal
HOP-62 NSCLC = tested on: HOP-62 NSCLC
SK-MEL-5 melanoma = tested on: SK-MEL-5 melanoma
SN12C renal = tested on: SN12C renal
K-562 leukemia = tested on: K-562 leukemia
NCI-H23 lung = tested on: NCI-H23 lung
HCT-15 colon = tested on: HCT-15 colon
UO-31 renal = tested on: UO-31 renal
HS 578T breast = tested on: HS 578T breast
OVCAR-3 ovarian = tested on: OVCAR-3 ovarian
CAKI-1 renal = tested on: CAKI-1 renal
SF-295 CNS = tested on: SF-295 CNS

Measured: TGI

NC(=O)CS(=O)CC(N)C(=O)O (configuration not stated)
> 100 µM: all assays above
